What was measured:
p-H2AX in HepG2 cells = assay: Western blotting, p-H2AX; assay type: cell-based, human; details: 24 hours of safranal treatment (1 mM)
Description: HepG2, were cultured in RPMI 1640 medium (HyClone, USA) and 1% of 100 U/ml penicillin and 100 ug/ml streptomycin (Sigma, USA) supplemented with 10% fetal bovine serum (Sigma, USA) at 37° C. in a humidified 5% CO2 atmosphere. Cells were sub-cultured each 4-6 days using trypsin 0.25% (Hyclone, USA).
In 100 mm plates, HepG2 cells were seeded at a density of 2×10^4 in complete growth medium. Cells were allowed to attach for 24 hours, after which complete growth medium was replaced by serum-free medium. Cells were treated with safranal at a concentration of 1 mM (20 mM stock). Plates were incubated for 6, 12, 24, and 48 hours in a humidified 5% CO2 atmosphere at 37° C. At indicated times, 1 mL of cell supernatant was obtained from each plate and was stored at −80° C. for further analysis by ELISA. After which whole cell lysates were prepared. Bicinchoninic acid (BCA) assay (Sigma-Aldrich, USA) was used to determine concentration of protein. Thirty μg of protein were loaded onto 10% SDS polyacrylamide electrophoresis gels. The gels were transferred onto nitrocellulose membranes prior to immunodetection processing with anti-p-IkB-alpha, anti-H2AX (Cell Signaling Technology, USA), and with anti-rabbit IgG peroxidase conjugated secondary antibodies. […]

[1] = system: caspase-cleaved fragment of cytokeratin18 (M30 CytoDeath); assay: M30 CytoDeath staining of liver sections (early apoptosis); assay type: in vivo, albino Wistar rats
Description: (§1) The experimental hepatocarcinogenesis model was developed according to a protocol by Espandiaria et al. that was adapted for our purposes. To initiate and promote hepatocarcinogenesis, diethylnitrosamine (DEN) and 2-acetylaminofluorene (2-AAF) were used, respectively. For hepatocarcinogenesis initiation in this model, a single DEN dose (200 mg/kg b.wt.) dissolved in saline was injected intraperitoneally. After initiation, all rats underwent one period of 5-days fasting, as mitotic proliferative stimuli. To promote hepatocarcinogenesis, 2-acetylaminofluorene (2-AAF) was introduced in the form of six daily intragastric doses (30 mg/kg in 1% Tween 80); two weeks after DEN treatment.
Safranal at doses of 25 mg/kg by weight (b.wt.) and 50 mg/kg b.wt, was administrated orally to rats. These doses have been reported to suppress chemically-induced oxidative damage in rats. […]
TUNEL assay was performed for the purpose of assessing apoptosis. […] DNA fragmentation, a key indicator of apoptosis, is detected using this kit. […]
(§2) For immunohistochemical staining, mounted sections were immersed in sodium citrate buffer (0.1 M, pH 6) and placed in a water bath for 15 minutes to unmask antigen epitopes. […] Ten fields were randomly selected to quantify positive cells, in individual samples (400×). […]

HDAC = HDAC colorimetric assay in liver homogenate; assay type: in vivo, albino Wistar rats
Description: as §1
(§3) Safranal at doses of 25 mg/kg by weight (b.wt.) and 50 mg/kg b.wt, was administrated orally to rats. These doses have been reported to suppress chemically-induced oxidative damage in rats. A total of 40 adult male albino Wistar rats were randomly divided into […] (n=8) and were subjected to different treatments. Group 1 (control) was orally administered distilled water (5 ml/kg b.wt.) throughout the experimental duration and were injected with a single dose of saline. Group 2 (Safranal only) was subjected to a safranal dose (50 mg/kg b.wt.) through oral administration for the duration of the experimental period. […]

Ki-67 = assay: Immunohistochemical staining of liver sections, Ki-67 (cell proliferation); assay type: in vivo, albino Wistar rats
Description: as §1
Safranal at doses of 25 mg/kg by weight (b.wt.) and 50 mg/kg b.wt, was administrated orally to rats. These doses have been reported to suppress chemically-induced oxidative damage in rats. A total of 40 adult male albino Wistar rats were randomly divided into […] (n=8) and were subjected to different treatments. […]
as §2

[2] = system: foci of altered hepatocytes (FAH); assay: Histopathology (H&E) of liver, foci of altered hepatocytes; assay type: in vivo, albino Wistar rats
Description: as §1, §3

CC1=C(C=O)C(C)(C)CC=C1 [Safranal, 2,6,6-trimethylcyclohexa-1,3-diene-1-carbaldehyde]
protein level of p-H2AX (p-H2AX in HepG2 cells): remarkable induction of p-H2AX
number of M30 CytoDeath-positive cells ([1]; low/high doses of safranal in animals exposed to DEN, compared to group 3): significant increase in the number of both TUNEL- and M30 CytoDeath-positive cells
number of M30 CytoDeath-positive cells ([1]; safranal only (group 2), compared to control group): did not exhibit a notable change
HDAC activity in liver (HDAC; low/high doses of safranal, DEN-treated (groups 4-5)): restored HDAC activity to the normal range
HDAC activity in liver (HDAC; safranal alone (group 2), compared to control): did not change HDAC activity
number of Ki-67 positive cells (Ki-67; low/high doses of safranal in animals exposed to DEN (groups 4-5)): dramatically reduced the number of Ki-67 positive cells
number of Ki-67-expressing hepatocytes (Ki-67; safranal alone (group 2)): did not induce a significant change
number and size of hepatocellular nodules (FAH) ([2]; protective groups, DEN-2-AAF rats + low/high doses of safranal (25/50 mg/kg b.wt.)): remarkably decrease in number and size
hepatocellular nodules (FAH) in liver sections ([2]; treatment with safranal alone (group 2, 50 mg/kg b.wt.)): abolished such hepatocellular nodules almost completely

From patent US10912741B2, “Prevention of liver cancer with safranal-based formulations” (United Arab Emirates University, priority 2019, dated 2021)
